{
  "source": "patent US20050009770A1",
  "about": "“Use of excipients to increase DNA uptake by swine muscle cells” (priority 2002, published 2005)",
  "data": [
    {"tested_on": "swine muscle cells", "assay": "Excipient testing in pigs: X-gal staining of muscle after IM injection of β galactosidase plasmid DNA with excipient", "type": "in vivo", "conditions": "excipient combined with plasmid DNA containing a β galactosidase gene; conclusion", "description": "Solutions of sucrose (3-7%), DMSO (18-22%), Tween 80 (0.03-0.07%), or E. coli recombinant modified labile toxin (rmLT) (23-27 ug/dose) can be formulated at the desired final concentration in 150 mM sodium phosphate, pH 7.2, containing 1 mg/ml of the plasmid DNA of interest. Solutions can be assembled by dissolving the excipients and plasmid DNA in 150 mM sodium phosphate, pH 7.2 at the desired concentration. Alternatively, the preparations can be prepared as sub-solution, at twice their final concentration in 150 mM sodium phosphate, pH 7.2, and then mixed in equal volumes immediately prior to administration. The SEPA-DNA solution is prepared by adding 1 part of the respective DNA solution, at 5 mg/ml, to 4 parts SEPA.\nTable 1 contains the scoring results of X-gal staining in swine muscles 5 days following injection of the various DNA and excipients solutions.\nEach pig received a total of 6 injections. All injections administered in the longissimus dorsi muscle (3/side). Injections were approximately 2.5″ lateral to the spine. On each side of the pig, one site was located at approximately the last rib, and the two others were at approximately 6″ and 12″ cranial (towards the nose) from the last rib. Hair was clipped in an area approximately 1″ square to aid identification of injection sites. Injections were made in the center of each shaved area, at approximately 90′ angle to the skin surface. The pigs were restrained briefly in a self-locking head catch chute and the test article administered IM using a 1.5″ long 18 gauge needle attached to a 3 ml syringe. Each test article (treatment) was administered in a total of 3 injection sites (each on a different pig). The total volume of each injection was 1 ml.\nPigs were euthanized 5 days following administration of the respective DNA and excipient solution. A section of tissue approximately 1″ cubed, surrounding the point of entry of the needle, was excised. […] The amount of staining was determined by visual observation using a subjective scale from “No Staining” through a gradation to “Yes++++”. […]", "values": [
      {"compound": "OC[C@H]1O[C@@](CO)(O[C@H]2O[C@H](CO)[C@@H](O)[C@H](O)[C@H]2O)[C@@H](O)[C@@H]1O", "note": "[5% Sucrose, sucrose]", "DNA uptake by swine muscle cells, as indicated by tissue staining": "enhanced DNA uptake"},
      {"compound": "C[S+](C)[O-]", "note": "[20% Dimethyl sulfoxide, dimethyl sulfoxide]", "DNA uptake by swine muscle cells, as indicated by tissue staining": "enhanced DNA uptake"},
      {"compound": "CCCCCCCCCC1OCCO1", "note": "[SEPA solution, 2-n-Nonyl-1,3-dioxolane]", "DNA uptake by swine muscle cells, as indicated by tissue staining": "enhanced DNA uptake"}
    ]}
  ]
}
